Experiments:
[1] = test system: MCF-7 breast cancer cells; experiment: DIMSCAN cytotoxicity assay, MCF-7; format: cell-based; settings: MCF-7, fatty acid 5 micromolar
From the text: (§1) Cell culture. The pre-T acute lymphoblastic leukemia cell lines MOLT-4 and CCRF-CEM, small cell lung cancer cell line NCI-H146, non-small cell lung cancer cell line NCI-H1792, colon cancer cell lines LoVo and HT-29, and breast cancer cell line MCF-7, were purchased from American Type Culture Collection, Manassas, Va., and grown at 20%/5% and 5%/5%, respectively. COG-LL-317 and COG-LL-332 pre-T acute lymphoblastic leukemia cell lines were obtained from the TTUHSC Cancer Center Cell Repository and grown at 5%/5%. Cell line identities were verified by short tandem repeat analysis and mycoplasma testing was performed. Cell lines were maintained in RPMI-1640 medium supplemented with 10% fetal bovine serum (FBS, Invitrogen) in humidified, 37° C. incubators. For all experiments, ALL cell lines were seeded at 2. cells/mL in RPMI-1640 medium supplemented with 15% fetal bovine serum. Solid tumor cell lines were plated at 5×cells/mL in RPMI-1640 medium supplemented with 10% fetal bovine serum.
(§2) Cytotoxicity Assay. Cytoxicity is determined using the DIMSCAN assay system (R. Proffitt et al., Cytometry 24, 204-213 (1996); T. Frgala et al., Proc. AACR, 36, 303 (1995). The system employs digital imaging microscopy to quantify viable cells, which selectively accumulate fluorescein diacetate to become brightly fluorescent. The system is capable of measuring cytotoxicity over a 4-5 log dynamic range by quenching the residual fluorescence of dead and dying cells with eosin Y and quantifying the total fluorescence of viable cells using digital thresholding. Measured fluorescence is directly proportionate to the number of viable cells. A comparison of the total fluorescence of a drug-treated cell population to the fluorescence of a similar number of untreated cells yields a survival fraction.
In brief, 5,000 to 25,000 cells/well depending on the cell line (5,000 for solid tumor, 25,000 for ALL cell lines) were replicate plated into 60 wells of a 96-well tissue culture plate in 0.1 cc media and allowed to attach or recover overnight. […]

[2] = test system: NCI-H146 small cell lung cancer cells; experiment: DIMSCAN cytotoxicity assay, NCI-H146; format: cell-based, human; settings: NCI-H146, fatty acid 5 micromolar
From the text: as §1
as §2, with “cells.” for “cells. A comparison of the total fluorescence of a drug-treated cell population to the fluorescence of a similar number of untreated cells yields a survival fraction.”
In brief, 5,000 to 25,000 cells/well depending on the cell line (5,000 for solid tumor, 25,000 for ALL cell lines) were replicate plated into 60 wells of a 96-well tissue culture plate in 0.1 cc media and allowed to attach or recover overnight. Drug(s) are then added in 0.05 cc media to the final concentrations indicated. […] Total fluorescence of viable cells is then measured by digital imaging microscopy and the signal normalized to control cells. […]

[3] = test system: reactive oxygen species; experiment: Reactive oxygen species generation; format: cell-based, human; settings: C22:0-fatty acid with sphinganine plus GT-11
[4] = test system: CCRF-CEM cells; experiment: DIMSCAN cytotoxicity assay, CCRF-CEM; format: cell-based; settings: 48 hours
From the text: as §1, with “For all experiments, ALL cell lines were seeded at 2. cells/mL in RPMI-1640 medium supplemented with 15% fetal bovine serum. Solid tumor cell lines were plated at 5×cells/mL in RPMI-1640 medium supplemented with 10% fetal bovine serum.” left out
as §2, with “A comparison of the total fluorescence of a drug-treated cell population to the fluorescence of a similar number of untreated cells yields a survival fraction.” left out

`CCCCCCCCCCCCCCCCCCCCCC(=O)O` [C22:0-fatty acid] was tested, and the “effect of fatty acid on fenretinide cytotoxicity” value [1] was “increased fenretinide cytotoxicity”, the “effect of fatty acid on fenretinide cytotoxicity” value [2] was “increased fenretinide cytotoxicity” and the “increase of reactive oxygen species” value [3] was “not observed”.
`CCCCCCCC/C=C\CCCCCCCCCCCC(=O)O` [C22:1-fatty acid] was tested, and the “effect of fatty acid addition on sphinganine/GT-11 cytotoxicity” value [4] was “did not impart any additional cytotoxicity”.

Reference: patent US20120121691A1, “Method for Increasing the Production of a Specific ACYL-Chain Dihydroceramide(s) for Improving the Effectiveness of Cancer Treatments” (priority 2010, published 2012)
